{"source": "patent US9211310B2", "about": "“Use of a Chinese medicine composition in preparing medicaments for treating secondary prevention of myocardial infarction” (TASLY PHARMACEUTICAL GROUP CO., LTD, priority 2010, dated 2015)", "test_system": "patients after acute myocardial infarction", "assay": "Life quality, Seattle Angina Questionnaire (SAQ), same clinical trial", "assay_type": "in vivo, human", "settings": "PP", "description": "3508 patients who were in accordance with the diagnostic standards of AMI for 28 days to 2 years and differentiated as Qi deficiency and blood stagnation syndrome by TCM were studied. 0.5 g Chinese medicine composition prepared by the method of EXAMPLE 1 (Coded as QSYQ) was administrated half an hour after meal, 3 times per day.\nThere were 19 questions in the Seattle angina questionnaire (SAQ), including 5 parts: physical limitation (PL), anginal stability (AS), anginal frequency (AF), treatment satisfaction (TS) and disease perception (DP). After being given necessary explanation by doctors, the questions were answered independently by patients.\nThey included the overall survival time, angina pectoris score, TCM symptom score and life quality score, where angina pectoris score, TCM symptom score and life quality score were evaluated at randomization, in 1st, 3rd, 6th, 9th, 12th month after treatment and 18th month after follow-up.\nAll evaluation results of SAQ were described during the period of observation, and Wilcoxon rank sum test was used for inter-group comparison.\nThe evaluation results in the SAQ were depicted in different observations, and inter-group comparison was tested by Wilcoxon Rank-sum test.", "data": [{"molecule": "CC(=O)Oc1ccccc1C(=O)O", "note": "[Control group, aspirine]", "values": [{"measurement": "SAQ Question 1-1 Moderately limited, percent of patients", "setting": "6 months after treatment", "value": "(0.28%)"}, {"measurement": "SAQ Question 1-1 Not limited, number of patients", "setting": "6 months after treatment", "value": 1368}, {"measurement": "SAQ Question 1-1 Not limited, percent of patients", "setting": "6 months after treatment", "value": "(94.34%)"}, {"measurement": "SAQ Question 1-1 Other reasons, number of patients", "setting": "6 months after treatment", "value": 3}, {"measurement": "SAQ Question 1-1 Other reasons, percent of patients", "setting": "6 months after treatment", "value": "(0.21%)"}, {"measurement": "SAQ Question 1-1 Severely limited, number of patients", "setting": "6 months after treatment", "value": 0}, {"measurement": "SAQ Question 1-1 Severely limited, percent of patients", "setting": "6 months after treatment", "value": "(0.00%)"}, {"measurement": "SAQ Question 1-1 Slightly limited, number of patients", "setting": "6 months after treatment", "value": 53}, {"measurement": "SAQ Question 1-1 Slightly limited, percent of patients", "setting": "6 months after treatment", "value": "(3.66%)"}, {"measurement": "SAQ Question 1-2 Mildly limited, number of patients", "setting": "6 months after treatment", "value": 19}, {"measurement": "SAQ Question 1-2 Mildly limited, percent of patients", "setting": "6 months after treatment", "value": "(1.31%)"}, {"measurement": "SAQ Question 1-2 Moderately limited, number of patients", "setting": "6 months after treatment", "value": 6}, {"measurement": "SAQ Question 1-2 Moderately limited, percent of patients", "setting": "6 months after treatment", "value": "(0.41%)"}, {"measurement": "SAQ Question 1-2 Not limited, number of patients", "setting": "6 months after treatment", "value": 1352}, {"measurement": "SAQ Question 1-2 Not limited, percent of patients", "setting": "6 months after treatment", "value": "(93.24%)"}, {"measurement": "SAQ Question 1-2 Other reasons, number of patients", "setting": "6 months after treatment", "value": 6}, {"measurement": "SAQ Question 1-2 Other reasons, percent of patients", "setting": "6 months after treatment", "value": "(0.41%)"}, {"measurement": "SAQ Question 1-2 Severely limited, number of patients", "setting": "6 months after treatment", "value": 1}, {"measurement": "SAQ Question 1-2 Severely limited, percent of patients", "setting": "6 months after treatment", "value": "(0.07%)"}, {"measurement": "SAQ Question 1-2 Slightly limited, number of patients", "setting": "6 months after treatment", "value": 66}, {"measurement": "SAQ Question 1-2 Slightly limited, percent of patients", "setting": "6 months after treatment", "value": "(4.55%)"}, {"measurement": "SAQ Question 1-6: Mildly limited, patients (%)", "setting": "6 months after treatment", "value": "(16.24%)"}, {"measurement": "SAQ Question 1-6: Moderately limited, patients (%)", "setting": "6 months after treatment", "value": "(12.07%)"}, {"measurement": "SAQ Question 1-6: Not limited, patients (%)", "setting": "6 months after treatment", "value": "(34.35%)"}, {"measurement": "SAQ Question 1-6: Other reasons, patients (%)", "setting": "6 months after treatment", "value": "(1.11%)"}, {"measurement": "SAQ Question 1-6: Severely limited, patients (%)", "setting": "6 months after treatment", "value": "(3.19%)"}, {"measurement": "SAQ Question 1-6: Slightly limited, patients (%)", "setting": "6 months after treatment", "value": "(33.03%)"}, {"measurement": "SAQ Question 1-7: Mildly limited, patients (%)", "setting": "6 months after treatment", "value": "(21.45%)"}, {"measurement": "SAQ Question 1-7: Moderately limited, patients (%)", "setting": "6 months after treatment", "value": "(12.58%)"}, {"measurement": "SAQ Question 1-7: Not limited, patients (%)", "setting": "6 months after treatment", "value": "(14.47%)"}, {"measurement": "SAQ Question 1-7: Other reasons, patients (%)", "setting": "6 months after treatment", "value": "(3.70%)"}, {"measurement": "SAQ Question 1-7: Severely limited, patients (%)", "setting": "6 months after treatment", "value": "(14.88%)"}, {"measurement": "SAQ Question 1-7: Slightly limited, patients (%)", "setting": "6 months after treatment", "value": "(32.91%)"}, {"measurement": "SAQ Question 1-8: Mildly limited, patients (%)", "setting": "6 months after treatment", "value": "(25.91%)"}, {"measurement": "SAQ Question 1-8: Moderately limited, patients (%)", "setting": "6 months after treatment", "value": "(16.01%)"}, {"measurement": "SAQ Question 1-8: Not limited, patients (%)", "setting": "6 months after treatment", "value": "(10.81%)"}, {"measurement": "SAQ Question 1-8: Other reasons, patients (%)", "setting": "6 months after treatment", "value": "(3.79%)"}, {"measurement": "SAQ Question 1-8: Severely limited, patients (%)", "setting": "6 months after treatment", "value": "(18.96%)"}, {"measurement": "SAQ Question 1-8: Slightly limited, patients (%)", "setting": "6 months after treatment", "value": "(24.51%)"}, {"measurement": "8th question: Mostly satisfied, patients (%)", "setting": "6 months after treatment, second line of the scale", "value": "(1.58%)"}, {"measurement": "8th question: Dissatisfied, patients (%)", "setting": "9 months after treatment", "value": "(0.28%)"}, {"measurement": "8th question: Highly satisfied, patients (%)", "setting": "9 months after treatment", "value": "(23.18%)"}, {"measurement": "8th question: Mostly dissatisfied, patients (%)", "setting": "9 months after treatment", "value": "(1.18%)"}, {"measurement": "8th question: Mostly satisfied, patients (%)", "setting": "9 months after treatment", "value": "(58.78%)"}, {"measurement": "8th question: Partly satisfied, patients (%)", "setting": "9 months after treatment", "value": "(16.59%)"}, {"measurement": "9th question: Few, patients (%)", "setting": "9 months after treatment", "value": "(38.61%)"}, {"measurement": "9th question: Mild, patients (%)", "setting": "9 months after treatment", "value": "(32.78%)"}, {"measurement": "9th question: Moderate, patients (%)", "setting": "9 months after treatment", "value": "(7.01%)"}, {"measurement": "9th question: Severe, patients (%)", "setting": "9 months after treatment", "value": "(0.35%)"}, {"measurement": "9th question: Uneffective, patients (%)", "setting": "9 months after treatment", "value": "(21.25%)"}, {"measurement": "10th question: Dissatisfied, patients (%)", "setting": "9 months after treatment", "value": "(18.81%)"}, {"measurement": "10th question: Highly satisfied, patients (%)", "setting": "9 months after treatment", "value": "(6.18%)"}, {"measurement": "10th question: Mostly dissatisfied, patients (%)", "setting": "9 months after treatment", "value": "(19.99%)"}, {"measurement": "10th question: Mostly satisfied, patients (%)", "setting": "9 months after treatment", "value": "(29.22%)"}, {"measurement": "10th question: Partly satisfied, patients (%)", "setting": "9 months after treatment", "value": "(25.82%)"}, {"measurement": "11th question: Continuously worried, patients (%)", "setting": "9 months after treatment", "value": "(2.43%)"}, {"measurement": "11th question: No worried, patients (%)", "setting": "9 months after treatment", "value": "(6.11%)"}, {"measurement": "11th question: Occasionally worried, patients (%)", "setting": "9 months after treatment", "value": "(42.40%)"}, {"measurement": "11th question: Often worried, patients (%)", "setting": "9 months after treatment", "value": "(11.73%)"}, {"measurement": "11th question: Seldom worried, patients (%)", "setting": "9 months after treatment", "value": "(37.34%)"}, {"measurement": "SAQ 4th question, 1-2 times per week: % of patients", "setting": "9 months after treatment", "value": "(15.99%)"}, {"measurement": "SAQ 4th question, 1-2 times per week: number of patients", "setting": "9 months after treatment", "value": 230}, {"measurement": "SAQ 4th question, 1-3 times per week: % of patients", "setting": "9 months after treatment", "value": "(3.41%)"}, {"measurement": "SAQ 4th question, 1-3 times per week: number of patients", "setting": "9 months after treatment", "value": 49}, {"measurement": "SAQ 4th question, <1 time per week: % of patients", "setting": "9 months after treatment", "value": "(14.95%)"}, {"measurement": "SAQ 4th question, <1 time per week: number of patients", "setting": "9 months after treatment", "value": 215}, {"measurement": "SAQ 4th question, Not used: % of patients", "setting": "9 months after treatment", "value": "(61.54%)"}, {"measurement": "SAQ 4th question, Not used: number of patients", "setting": "9 months after treatment", "value": 885}, {"measurement": "SAQ 4th question, ≧3 times per week: % of patients", "setting": "9 months after treatment", "value": "(4.03%)"}, {"measurement": "SAQ 4th question, ≧3 times per week: number of patients", "setting": "9 months after treatment", "value": 58}, {"measurement": "SAQ 4th question, ≧4 times per day: % of patients", "setting": "9 months after treatment", "value": "(0.07%)"}, {"measurement": "SAQ 4th question, ≧4 times per day: number of patients", "setting": "9 months after treatment", "value": 1}, {"measurement": "SAQ 5th question, 1-2 times per week: % of patients", "setting": "9 months after treatment", "value": "(30.04%)"}, {"measurement": "SAQ 5th question, 1-2 times per week: number of patients", "setting": "9 months after treatment", "value": 432}, {"measurement": "SAQ 5th question, 1-3 times per day: % of patients", "setting": "9 months after treatment", "value": "(6.68%)"}, {"measurement": "SAQ 5th question, 1-3 times per day: number of patients", "setting": "9 months after treatment", "value": 96}, {"measurement": "SAQ 5th question, <1 time per week: % of patients", "setting": "9 months after treatment", "value": "(28.65%)"}]}]}
